From patent US9056176B2, “1-phenyl-2-pyridinyl alkyl alcohol compounds as phosphodiesterase inhibitors” (CHIESI FARMACEUTICI S.P.A., priority 2009, dated 2015)

Columns and labels:
[1] = test system: LPS-induced TNF-α release in human PBMCs (PDE4 inhibitory activity); test: LPS-induced TNF-α release in peripheral blood mononuclear cells (PBMCs) assay; assay type: cell-based; conditions: PBMC, LPS 3 ng/ml, 18 hours, TNF-α by ELISA, mean ± 95% confidence limits, read-out: molar concentration producing 50% inhibition of LPS-induced TNF-α release (IC50)
Protocol: The assay, which is based on the known inhibitory activity exerted by PDE4 inhibitors on the lipopolyshaccarides (LPS)-induced tumour necrosis factor-alpha (TNF-α release in peripheral blood mononuclear cells (PBMCs), is performed according to a method previously described (Hatzelmann A et al., J. Pharmacol. Exp. Ther., 2001; 297:267-279; and Draheim R et al., J. Pharmacol. Exp. Ther., 2004; 308:555-563, both of which are incorporated herein by reference in their entireties.
Cryopreserved human PBMCs, (100 μl/well) are incubated in 96-well plates (10^5 cells/well), for 30 minutes, in the presence or absence (50 microl) of the test compounds whose concentrations range from 10^−12 M to 10^−6 M. Subsequently, LPS (3 ng/ml) is added.
After 18 hours incubation at 37° C. in a humidified incubator under an atmosphere of 95% air and 5% CO2, culture medium is collected and TNF-α is measured by ELISA.
The effects of the tested compounds are calculated as percentage of inhibition of TNF-α release, assuming LPS-induced TNF-α production in the absence of inhibitor compound as 100% and basal TNF-α production of PBMCs in the absence of LPS as 0%.

[2] = test system: OA-induced contraction in guinea-pig trachea; test: OA-induced contraction of tracheal preparations from OA-sensitised guinea pigs (organ bath); conditions: 30-minute pre-treatment
Protocol: Zig-zag tracheal segments are obtained from male Ovoalbumin (OA)-sensitised guinea pigs and two preparations are obtained from a trachea. Each preparation is placed in 20-ml organ bath filled with oxygenated (O2 95% and CO2 5%) normal Krebs-Henseleit solution and maintained at 37° C. Tracheal preparations are connected to isometric force transducers under a resting tone of 1 g. After an equilibration period of 60 minutes, tracheal preparations are pretreated for 30 minutes with C1 (10^-7 M), Carmoterol (3*10^-10 M), the association C1 and Carmoterol or vehicle, respectively, followed by cumulative administration of OA (10^−10-10^−5 g/ml). At the end of the OA administration a maximal concentration of carbachol (10^−5 M) is added to obtain the maximal contraction of each preparation. The effects are expressed as percent values of the carbachol-induced maximal response (100%).

| Structure (SMILES) | IC50 [1] [nM] | inhibition at 0.1 µM ([2]; Cavia porcellus, C1 10^−7 M) [%] | inhibition of the OA-induced contraction ([2]; Carmoterol 3*10^-10 M) [%] |
| --- | --- | --- | --- |
| CS(=O)(=O)Nc1ccc(C(=O)OC(Cc2c(Cl)cncc2Cl)c2ccc(OC(F)F)c(OCC3CC3)c2)cc1OCC1CC1 (single isomer, unassigned; (-)) [Compound C1, (−)-3-Cyclopropylmethoxy-4-methanesulfonylamino-benzoic acid 1-(3-cyclopropylmethoxy-4-difluoromethoxy-phenyl)-2-(3,5-dichloro-pyridin-4-yl)-ethyl ester] | 0.06 to 4.4 | 23 | – |
| COc1ccc(C[C@@H](C)NC[C@H](O)c2ccc(O)c3[nH]c(=O)ccc23)cc1 [Carmoterol, carmoterol, reference compound] | – | – | 18 |
